{"source": "the supplement of paper PMC10307832", "test_in_all_cases": "relative viability (nuclei count vs DMSO), 5 days (fraction); higher = more cells survive", "key": {"Alpelisib + Lapatinib": {"compound": "Cc1nc(NC(=O)N2CCC[C@H]2C(N)=O)sc1-c1ccnc(C(C)(C)C(F)(F)F)c1 [Alpelisib] + CS(=O)(=O)CCNCc1ccc(-c2ccc3ncnc(Nc4ccc(OCc5cccc(F)c5)c(Cl)c4)c3c2)o1 [Lapatinib] (partner 2 µM)", "how_it_was_run": "(§1)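 Relative viability was taken as the ratio of nuclei in treated wells to nuclei in vehicle wells. Lung cancer cell lines in 1536-well plates received compounds by pin tool one day after seeding, either one drug alone or a fixed anchor-drug dose plus five library-drug doses (not always all listed) in √10 steps. Nuclei were counted on 4× images after 5 days of treatment, and values are medians of duplicate plates.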"}, "Alpelisib + Vorinostat": {"compound": "Cc1nc(NC(=O)N2CCC[C@H]2C(N)=O)sc1-c1ccnc(C(C)(C)C(F)(F)F)c1 [Alpelisib] + O=C(CCCCCCC(=O)Nc1ccccc1)NO [Vorinostat] (partner 1 µM)", "how_it_was_run": "as §1"}, "OSI-027 + Lapatinib": {"compound": "COc1cccc2cc(-c3nc([C@H]4CC[C@H](C(=O)O)CC4)n4ncnc(N)c34)[nH]c12 [OSI-027] + CS(=O)(=O)CCNCc1ccc(-c2ccc3ncnc(Nc4ccc(OCc5cccc(F)c5)c(Cl)c4)c3c2)o1 [Lapatinib] (partner 2 µM)", "how_it_was_run": "as §1"}, "Vemurafenib + Lapatinib": {"compound": "CCCS(=O)(=O)Nc1ccc(F)c(C(=O)c2c[nH]c3ncc(-c4ccc(Cl)cc4)cc23)c1F [Vemurafenib] + CS(=O)(=O)CCNCc1ccc(-c2ccc3ncnc(Nc4ccc(OCc5cccc(F)c5)c(Cl)c4)c3c2)o1 [Lapatinib] (partner 2 µM)", "how_it_was_run": "as §1"}}}
{"cell line": "UMC-11", "values": [{"measurement": "relative viability", "setting": "Alpelisib + Lapatinib; first compound 0.04 µM", "value": 1.03}, {"measurement": "relative viability", "setting": "Alpelisib + Lapatinib; first compound 0.1265 µM", "value": 0.948}, {"measurement": "relative viability", "setting": "Alpelisib + Lapatinib; first compound 0.4 µM", "value": 1.01}, {"measurement": "relative viability", "setting": "Alpelisib + Lapatinib; first compound 1.265 µM", "value": 1.02}, {"measurement": "relative viability", "setting": "Alpelisib + Lapatinib; first compound 4 µM", "value": 0.875}, {"measurement": "relative viability", "setting": "Alpelisib + Vorinostat; first compound 0.04 µM", "value": 0.374}, {"measurement": "relative viability", "setting": "Alpelisib + Vorinostat; first compound 0.1265 µM", "value": 0.31}, {"measurement": "relative viability", "setting": "Alpelisib + Vorinostat; first compound 0.4 µM", "value": 0.403}, {"measurement": "relative viability", "setting": "Alpelisib + Vorinostat; first compound 1.265 µM", "value": 0.344}, {"measurement": "relative viability", "setting": "Alpelisib + Vorinostat; first compound 4 µM", "value": 0.31}, {"measurement": "relative viability", "setting": "OSI-027 + Lapatinib; first compound 0.01 µM", "value": 0.934}, {"measurement": "relative viability", "setting": "OSI-027 + Lapatinib; first compound 0.03162 µM", "value": 0.939}, {"measurement": "relative viability", "setting": "OSI-027 + Lapatinib; first compound 0.1 µM", "value": 0.805}, {"measurement": "relative viability", "setting": "OSI-027 + Lapatinib; first compound 0.3162 µM", "value": 0.693}, {"measurement": "relative viability", "setting": "OSI-027 + Lapatinib; first compound 1 µM", "value": 0.506}, {"measurement": "relative viability", "setting": "Vemurafenib + Lapatinib; first compound 0.03162 µM", "value": 0.698}, {"measurement": "relative viability", "setting": "Vemurafenib + Lapatinib; first compound 0.1 µM", "value": 0.956}, {"measurement": "relative viability", "setting": "Vemurafenib + Lapatinib; first compound 0.3162 µM", "value": 0.73}, {"measurement": "relative viability", "setting": "Vemurafenib + Lapatinib; first compound 1 µM", "value": 0.625}]}
